# Assay: Human HepG2 cell viability assay in 384 well format
# Assay type: toxicity, cell-based
# Parameters: dose 125 nL, time 70.5 hour; concentration not given beside the values
# Settings: HepG2 cells, read-out: Inhibition
row,Compound,cytotoxicity at 70.5 h [%]
1,CN(Cc1ccsc1)C(=O)Nc1ccc(N(C)C)nc1,-2.83
2,CCOc1ccnc(N2CCN(C(=O)c3c(CC)noc3C)CC2)n1,-7.39
3,CCOc1ccnc(N2CCN(C(=O)c3cn[nH]c3C)CC2)n1,13.7
4,CC(C)c1nc(CN2CCCC2c2cnn(C)c2)cs1 (stereo not drawn),-2.88
5,CC(=O)N(C)c1nc(CN2CCCC2c2cnn(C)c2)cs1 (stereo not drawn),1
6,c1ccc(-n2ccc(CN3CCOC(Cn4cncn4)C3)n2)cc1 (stereo not drawn),-8.56
7,c1ccc(-c2ccc(CN3CCOC(Cn4cncn4)C3)cc2)cc1 (stereo not drawn),22
8,Cn1cc(C2CCCN2Cc2csc(C3CCCC3)n2)cn1 (stereo not drawn),0.499
9,Cc1cnn(CC2CN(Cc3ccc(-n4cccn4)cc3)CCO2)c1 (stereo not drawn),-0.9
10,Cn1cc(-c2nc(CN3CCCCC3Cn3cncn3)cs2)cn1 (stereo not drawn),19.3
11,CS(=O)(=O)NCCN1CCCC1c1noc(C2CC2)n1 (stereo not drawn),19.5
12,Cc1n[nH]c(C2CN(Cc3nnc(C4CCC4)o3)CCO2)n1 (stereo not drawn),-1.02
13,CCc1nnc(CN2CCOC(Cn3cccn3)C2)o1 (stereo not drawn),-8.14
14,c1ccc(Cc2nc(CN3CCCC3Cn3cncn3)cs2)cc1 (stereo not drawn),-7.1
15,Cc1cnn(CC2CCCCN2Cc2nnsc2Cl)c1 (stereo not drawn),-7.35
16,CS(=O)(=O)c1ccc(CNC(=O)N2CCC(C(N)=O)CC2)cc1,-2.35
17,CCOc1ncccc1NC(=O)NCC(O)c1ccc(OC)cc1 (stereo not drawn),19.2
18,CC(NC(=O)NCCCc1n[nH]c(N)c1C#N)c1ccc(Cl)cc1 (stereo not drawn),-0.0754
19,COc1cc(C(=O)Nc2nc(C)no2)ccc1OC(F)F,2.82
20,CCOCc1ccc(CNC(=O)N2CCC(C(N)=O)C2)cc1 (stereo not drawn),-2.39
21,c1ccc(-c2nnc(CN3CCOC(Cn4cccn4)C3)o2)cc1 (stereo not drawn),-6.72
22,Cc1nn(C)c(N2CCOCC2)c1CN[C@@H]1c2ccccc2C[C@@H]1O,-0.734
23,CS(=O)(=O)Cc1ccc(CNC(=O)N2CCC(C(N)=O)C2)cc1 (stereo not drawn),-1.33
24,Cc1ccc(-c2nnc(CN3CCOC(Cn4cncn4)C3)o2)cc1 (stereo not drawn),-5.3

row,Compound,cytotoxicity at 70.5 h [%]
1,COc1ccc(C)cc1C(=O)N1CCCC(n2nc(C)nc2C)C1 (stereo not drawn),-8.26
2,CS(=O)(=O)c1ccc(CNC(=O)N2CCC(CO)CC2)cc1,-2.86
3,Clc1ccc(-c2nnc(CNCCn3cccn3)o2)c(Cl)c1,-6.39
4,Cc1nc(C)n(CC2CCCN2CCOc2ccccc2F)n1 (stereo not drawn),-3.47
5,CCc1nc(CN(C(C)=O)C2CCN(CCc3ccccc3)C2)no1 (stereo not drawn),-5
6,Cc1nc(CN2CCCC(NCCCc3ccccc3)C2)no1 (stereo not drawn),-10.6
7,O=C(CCCN1C(=O)CCC1=O)NCC1(c2ccccc2)CCC1,-11.4
8,Cc1cccc(-n2c(C)cc(C(=O)NS(C)(=O)=O)c2C)c1,-14.6
9,CC(NC(=O)NCCn1ccnc1)c1ccc2c(c1)OCCCO2 (stereo not drawn),-13.2
10,CC(NC(=O)NCCCO)c1ccc2c(c1)NC(=O)CO2 (stereo not drawn),-12
11,CNC(=O)c1cc(C)n(-c2cccc(OC)c2)c1C,11
12,CN(CC(N)=O)CC(=O)N1CC=C(c2ccccc2)CC1,-10.6
13,c1ccc2nc(N3CCOC(Cn4cccn4)C3)cnc2c1 (stereo not drawn),-11.7
14,CCOc1ccccc1CNC1CCCN(Cc2noc(C)n2)C1 (stereo not drawn),-9.86
15,Cc1cc(C)n(C2CCCN(C(=O)Cc3ccc(C#N)cc3)C2)n1 (stereo not drawn),-14.4
16,CNC(=O)CCNC(=O)c1cc(C)n(-c2cccc(OC)c2)c1C,-8.45
17,c1ccc2nc(N3CCOC(Cn4cncn4)C3)cnc2c1 (stereo not drawn),-5.96
18,Cc1n[nH]c(C2CN(C(=O)c3cc4c(s3)CCC4)CCO2)n1 (stereo not drawn),-14.5
19,Cc1cccc(C2(CNC(=O)CO)CCCC2)c1,17.1
20,O=C1C(NS(=O)(=O)c2cccc(F)c2)CCN1Cc1ccccc1 (stereo not drawn),-12
21,O=C1C(NS(=O)(=O)c2ccc(F)c(F)c2)CCN1Cc1ccccc1 (stereo not drawn),-7.62
22,O=C(NCCOc1ccc2c(c1)OCO2)C1CC(=O)N(CC2CC2)C1 (stereo not drawn),1.74
23,CNS(=O)(=O)c1ccc(C(=O)N2CCCC2Cc2ccccc2)o1 (stereo not drawn),1.08
24,O=C(NCCOc1cccc(Cl)c1)C1CC(=O)N(CC2CC2)C1 (stereo not drawn),40.6

row,Compound,cytotoxicity at 70.5 h [%]
1,CC(NC(=O)NCC1(N2CCCCC2)CCCCC1)c1nncn1C (stereo not drawn),-20.6
2,CN(C)S(=O)(=O)c1ccc(CN2CCCC2c2ccccc2)o1 (stereo not drawn),32.6
3,CCc1ccc(S(=O)(=O)Nc2cc(OC)c(OC)cc2C(=O)O)s1,4.71
4,CC(NC(=O)NCC1(c2ccccc2)CCC1)c1nncn1C (stereo not drawn),-16.7
5,O=C(COC(=O)Cc1cccs1)NCc1cccc(NC(=O)C2CC2)c1,-10.5
6,CCn1cc(NC(=O)C2CCN(CCOC(C)C)CC2)cn1,-1.36
7,CNS(=O)(=O)c1ccc(C(=O)N2CCCC2c2ccccc2)o1 (stereo not drawn),-14.1
8,O=C(c1csc(-c2cccs2)n1)N1CCCC1Cn1cccn1 (stereo not drawn),-18.2
9,Cc1cc(NC(=O)CN(C)C2CCCN(c3cccnn3)C2)n(C)n1 (stereo not drawn),-4.81
10,c1ncn(CC2CN(Cc3csc(C4CCCC4)n3)CCO2)n1 (stereo not drawn),-7.39
11,c1csc(-c2nc(CN3CCOC(Cn4cncn4)C3)cs2)c1 (stereo not drawn),-26.8
12,COCCNC(=O)NCc1ccc(OC(C)C)c(F)c1,-10.4
13,Cc1cn2c(n1)CCC(NC(=O)CCn1ccnn1)C2 (stereo not drawn),-8.67
14,CCOc1cc(C(=O)N2CCCC(c3noc(C)n3)C2)ccn1 (stereo not drawn),-12.6
15,CN(C)CC1CN(c2ccc(C#N)cn2)CCO1 (stereo not drawn),-10.1
16,CCN1CCOC(CNCc2ccccn2)C1 (stereo not drawn),-7.88
17,CN(C)S(=O)(=O)c1ccc(CN2CCCC2c2ccc[nH]2)o1 (stereo not drawn),-5.46
18,CCCc1n[nH]c(C2CN(C(=O)C3=COCCC3)CCO2)n1 (stereo not drawn),-16.3
19,CCc1nc2n(n1)CC(NCc1ccnc(-c3ccccc3)n1)CC2 (stereo not drawn),-10
20,Cc1cccc(OCCNC(=O)CN2CCCC2Cn2cccn2)c1 (stereo not drawn),-15.8
21,CNS(=O)(=O)c1ccc(C(=O)N2CCCC2c2cnn(C)c2)o1 (stereo not drawn),23
22,CNC(=O)CCCNCc1c(C(C)C)nn(C)c1N(C)C,14.4
23,CC(C)c1nc(C2CCCN2C(=O)c2ccc(N(C)C)nn2)no1 (stereo not drawn),7.67
24,CN(CCc1ccccn1)S(=O)(=O)N1CCCC1c1ccco1 (stereo not drawn),-10.8

row,Compound,cytotoxicity at 70.5 h [%]
1,COc1cccc(CCNC(=O)CN2CCN(C)CC2C)c1 (stereo not drawn),-17.1
2,CC(NC(=O)NCCCO)c1ccc2c(c1)OCCO2 (stereo not drawn),-10.1
3,CN(Cc1ccsc1)C(=O)c1cc2c([nH]c1=O)CCCC2=O,-12.8
4,CN1CCC(NC(=O)NCCNc2ccccn2)CC1,-13.1
5,CC(N(C)Cc1nc2c(cnn2C)c(=O)[nH]1)C(C)(C)C (stereo not drawn),21
6,COCCCNC(=O)CN(C)C(=O)c1cc(C)sc1C,-14
7,CN(CC(=O)N1CCN(c2ccccc2F)CC1)c1cnccn1,-18.2
8,CS(=O)(=O)NC1CCN(C(=O)NCCc2ccccc2F)CC1,-5.64
9,COc1ccccc1OCCN1CCC(N2CCNC2=O)CC1,19.7
10,Cn1ccnc1CN1CCN(Cc2cc(C#N)ccc2F)CC1,-11.4
11,COc1cccc(OCCNC(=O)CN2CCN(C)CC2C)c1 (stereo not drawn),-13.4
12,Cc1cnn(CCNCc2ccccc2C#N)c1,13.2
13,CC(NC(N)=O)C(=O)N(C)CCCc1cc(-c2ccccc2)no1 (stereo not drawn),-21.7
14,CC(C)c1nc(C2CCCN2C(=O)c2nccnc2N)no1 (stereo not drawn),-7.76
15,CN(C)C(CNC(=O)c1cc2c([nH]c1=O)CCCC2=O)c1ccsc1 (stereo not drawn),-2.41
16,CCOc1ncccc1NC(=O)N1CCCCCC1,-13.8
17,CC(c1nc(C2CC2)no1)N1CCN(CCOCC(F)(F)F)CC1 (stereo not drawn),-8.3
18,Cc1csc(N2CCN(CC(=O)Nc3nncs3)CC2C)n1 (stereo not drawn),-10
19,O=C(c1cnccn1)N1CCN(Cc2csc(-c3ccccc3)n2)CC1,10.5
20,CN(CCn1cccn1)S(=O)(=O)N1CCCC1c1ccco1 (stereo not drawn),-17
21,CCOc1ncccc1NC(=O)N1CCc2ccccc2C1,-12
22,Cc1noc(C)c1C(=O)NCC(C)N(C)C (stereo not drawn),4.18
23,CC(=O)N1CCC(CN2CCN(Cc3nccn3C)C(C)C2)CC1 (stereo not drawn),2.21
24,COc1ccc(C)cc1CN1CCCC1c1noc(C2CC2)n1 (stereo not drawn),-1.93

row,Compound,cytotoxicity at 70.5 h [%]
1,O=C(CCn1cccn1)N1CCN(CC(F)F)CC1,-1.77
2,CC(=O)N(Cc1ncc(C(C)C)o1)C1CCN(Cc2ncc[nH]2)C1 (stereo not drawn),0.135
3,CCC(=O)N1CCN(C(=O)CCn2cccn2)CC1,-7.9
4,c1ccc2sc(CN3CCCC3c3noc(C4CC4)n3)nc2c1 (stereo not drawn),4.52
5,c1ccc2c(N3CCCC3Cn3cccn3)ncnc2c1 (stereo not drawn),4.1
6,Cc1ccsc1C(=O)NCCCn1nc2ccccn2c1=O,-4.38
7,CNC(=O)C1CCN(C(=O)c2ccn(-c3ccc(F)cc3)n2)CC1,-15
8,CC(=O)NCCNC(=O)c1sc(-c2ccc(C)cc2C)nc1C,0.801
9,Cc1nc(-c2ccc(Cl)s2)sc1C(=O)NCCS(N)(=O)=O,-13.2
10,CN(C)Cc1nc(C(C)(C)NC(=O)C2CC(=O)N(CC3CC3)C2)no1 (stereo not drawn),19.5
11,CCCc1nc(C(C)(C)NC(=O)C2CC(=O)N(CC3CC3)C2)no1 (stereo not drawn),-6.06
12,CN1CCCN(C(=O)NCc2csc(Br)c2)CC1,-6.63
13,CN(C)C1CCN(C(=O)c2ccc(Cn3ccccc3=O)o2)CC1,1.64
14,COc1c(CNC2CCCc3ccccc32)c(C(C)C)nn1C (stereo not drawn),9.34
15,Cc1ncc2c(n1)CN(Cc1nnc(-c3occc3C)o1)CC2,4.24
16,Cc1ccc(-c2nnc(CN3CCc4cnc(C)nc4C3)o2)cc1,3.5
17,CC1CN(CC(=O)Nc2nncs2)CCN1Cc1nccn1C (stereo not drawn),-4.59
18,CCOc1cc(C)nc(N2CCN(C(=O)c3ccnn3C)CC2)n1,-3.99
19,c1cnn(CC2CCCN2c2ncnc3sccc23)c1 (stereo not drawn),31.2
20,c1ccc(-c2noc(CNC3CCc4ncnn4C3)n2)nc1 (stereo not drawn),-4.56
21,CC(C)c1nn(C)c(N(C)C)c1CNCCC(=O)N(C)C,-2.45
22,CC(C)c1nn(C)c(Cl)c1CNC1CCOc2ccccc21 (stereo not drawn),-2.92

# Source: ChEMBL document CHEMBL3507680, “University of Dundee, Gates Library screen for HepG2 cell viability”
